Measured values: PubChem BioAssay AID330 (DTP/NCI, 2004)
Several values for one entry are separate records, joined by “and”; a condition that tells them apart may be missing. Equal entries are not always repeated. Inconclusive results and toxic doses are left out. How the source made its calls: active means survival T/C of 150% or more; inactive means T/C below 125% in these data.

System: P388 leukemia ip, CD2F1 mice, survival T/C
Assay: NCI In Vivo Anticancer Drug Screen. Data for tumor model P388 Leukemia (intraperitoneal) in CD2F1 (CDF1) mice
Conditions: endpoint: median survival time, higher = longer survival
Method in brief: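 Mice carrying the transplanted tumor received test compound or vehicle. Survival was recorded in each group, and the value is the treated-group measurement divided by that of the vehicle-treated control group.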

[1] = dose: 25.0 mg/kg/injection, schedule: Q01DX009 (ip), vehicle: saline
[2] = dose: 50.0 mg/kg/injection, schedule: Q01DX009 (ip), vehicle: saline
[3] = dose: 100.0 mg/kg/injection, schedule: Q01DX009 (ip), vehicle: saline
[4] = dose: 200.0 mg/kg/injection, schedule: Q01DX009 (ip), vehicle: saline
[5] = dose: 50.0 mg/kg/injection, schedule: Q01DX005 (ip), vehicle: saline with Tween-80
[6] = dose: 100.0 mg/kg/injection, schedule: Q01DX005 (ip), vehicle: saline with Tween-80
[7] = dose: 200.0 mg/kg/injection, schedule: Q01DX005 (ip), vehicle: saline with Tween-80
[8] = dose: 100.0 mg/kg/injection, schedule: Q01DX009 (ip), vehicle: saline with Tween-80
[9] = dose: 200.0 mg/kg/injection, schedule: Q01DX009 (ip), vehicle: saline with Tween-80
[10] = dose: 100.0 mg/kg/injection, schedule: Q04DX003 (ip), vehicle: Klucel (hydroxypropylcellulose) (HPC)
[11] = dose: 200.0 mg/kg/injection, schedule: Q04DX003 (ip), vehicle: Klucel (hydroxypropylcellulose) (HPC)
[12] = dose: 400.0 mg/kg/injection, schedule: Q04DX003 (ip), vehicle: Klucel (hydroxypropylcellulose) (HPC)
[13] = dose: 50.0 mg/kg/injection, schedule: Q01DX005 (ip), vehicle: Klucel (hydroxypropylcellulose) (HPC)
[14] = dose: 100.0 mg/kg/injection, schedule: Q01DX005 (ip), vehicle: Klucel (hydroxypropylcellulose) (HPC)
[15] = dose: 200.0 mg/kg/injection, schedule: Q01DX005 (ip), vehicle: Klucel (hydroxypropylcellulose) (HPC)
[16] = dose: 100.0 mg/kg/injection, schedule: Q04DX003 (ip), vehicle: saline with Tween-80

Measured: T/C

O=C(NC1CCCCC1)Oc1ccc[nH]c1=O
inactive: [1] 92 % of control and 93 % of control | dose: 25.0 mg/kg/injection, schedule: Q01DX009 (sc), vehicle: saline with Tween-80 101 % of control and 109 % of control | [2] 102 % of control and 104 % of control | dose: 50.0 mg/kg/injection, schedule: Q01DX009 (sc), vehicle: saline with Tween-80 106 % of control and 107 % of control | [3] 105 % of control and 98 % of control | dose: 100.0 mg/kg/injection, schedule: Q01DX009 (sc), vehicle: saline with Tween-80 102 % of control and 117 % of control | [4] 102 % of control and 105 % of control | dose: 200.0 mg/kg/injection, schedule: Q01DX009 (sc), vehicle: saline with Tween-80 108 % of control and 111 % of control | dose: 400.0 mg/kg/injection, schedule: Q01DX009 (ip), vehicle: saline 116 % of control and 118 % of control | dose: 400.0 mg/kg/injection, schedule: Q01DX009 (sc), vehicle: saline with Tween-80 104 % of control and 107 % of control | dose: 600.0 mg/kg/injection, schedule: Q01DX009 (sc), vehicle: saline with Tween-80 102 % of control and 113 % of control

O=C1CCC(Cc2ccc(Cl)cc2Cl)C(=O)N1 (centres undefined)
inactive: dose: 60.0 mg/kg/injection, schedule: Q01DX005 (ip), vehicle: saline with Tween-80 96 % of control | dose: 120.0 mg/kg/injection, schedule: Q01DX005 (ip), vehicle: saline with Tween-80 94 % of control | dose: 240.0 mg/kg/injection, schedule: Q01DX005 (ip), vehicle: saline with Tween-80 87 % of control

Cc1cc([N+](=O)[O-])cc(Cl)n1
inactive: dose: 3.12 mg/kg/injection, schedule: Q01DX009 (ip), vehicle: Klucel (hydroxypropylcellulose) (HPC) 106 % of control | dose: 6.25 mg/kg/injection, schedule: Q01DX009 (ip), vehicle: Klucel (hydroxypropylcellulose) (HPC) 99 % of control | dose: 12.5 mg/kg/injection, schedule: Q01DX009 (ip), vehicle: Klucel (hydroxypropylcellulose) (HPC) 100 % of control | dose: 25.0 mg/kg/injection, schedule: Q01DX009 (ip), vehicle: Klucel (hydroxypropylcellulose) (HPC) 106 % of control

CC1=CC(C)(C)N=C2SC(=O)c3cc4c(cc3N12)OCO4
inactive: dose: 100.0 mg/kg/injection, schedule: Q04DX002 (ip), vehicle: saline with Tween-80 106 % of control | dose: 200.0 mg/kg/injection, schedule: Q04DX002 (ip), vehicle: saline with Tween-80 98 % of control | dose: 400.0 mg/kg/injection, schedule: Q04DX002 (ip), vehicle: saline with Tween-80 97 % of control

COC(=O)CC1(C(=O)OC)Oc2ccc(Br)cc2C(=O)N1c1ccc(Br)cc1Cl (centres undefined)
inactive: [5] 96 % of control | [6] 96 % of control | [7] 91 % of control

CC(O)c1cc(C(C)O)cc(C(C)O)c1 (centres undefined)
inactive: [2] 95 % of control | [3] 101 % of control | [4] 99 % of control

O=C1CSC(=O)N1c1ccc(F)cc1
inactive: dose: 6.25 mg/kg/injection, schedule: Q01DX009 (ip), vehicle: saline 98 % of control | dose: 12.5 mg/kg/injection, schedule: Q01DX009 (ip), vehicle: saline 113 % of control | [1] 114 % of control | dose: 50.0 mg/kg/injection, schedule: Q01DX009 (ip), vehicle: saline with Tween-80 106 % of control | [8] 104 % of control | [9] 87 % of control

CCOC(=O)C(CC)C(=O)c1ccccc1 (centres undefined)
inactive: dose: 75.0 mg/kg/injection, schedule: Q01DX009 (ip), vehicle: saline with Tween-80 105 % of control | dose: 150.0 mg/kg/injection, schedule: Q01DX009 (ip), vehicle: saline with Tween-80 109 % of control | dose: 300.0 mg/kg/injection, schedule: Q01DX009 (ip), vehicle: saline with Tween-80 112 % of control

CCCCCCCCCCCSSCCCCCCCCCCC
inactive: dose: 100.0 mg/kg/injection, schedule: Q01DX009 (ip), vehicle: other 100 % of control | dose: 100.0 mg/kg/injection, schedule: Q04DX003 (ip), vehicle: other 109 % of control | dose: 200.0 mg/kg/injection, schedule: Q01DX009 (ip), vehicle: other 109 % of control | dose: 200.0 mg/kg/injection, schedule: Q04DX003 (ip), vehicle: other 104 % of control | dose: 400.0 mg/kg/injection, schedule: Q01DX009 (ip), vehicle: other 104 % of control | dose: 400.0 mg/kg/injection, schedule: Q04DX003 (ip), vehicle: other 100 % of control

CCC(C)C1C(=O)OC(C(Cl)(Cl)Cl)N1Cc1ccc(OC)cc1OC (centres undefined)
inactive: [10] 109 % of control | [11] 107 % of control | [12] 104 % of control

Cc1ccc(NC(=S)NNC(=O)CN2C(=O)c3ccccc3C2=O)cc1
inactive: dose: 12.5 mg/kg/injection, schedule: Q01DX001 (ip), vehicle: Klucel (hydroxypropylcellulose) (HPC) 93 % of control | dose: 25.0 mg/kg/injection, schedule: Q01DX001 (ip), vehicle: Klucel (hydroxypropylcellulose) (HPC) 93 % of control | dose: 50.0 mg/kg/injection, schedule: Q01DX001 (ip), vehicle: Klucel (hydroxypropylcellulose) (HPC) 89 % of control and 90 % of control

c1cc2c3c(cccc3c1)NC(c1ccc3c(c1)OCO3)N2
inactive: [13] 100 % of control | [14] 100 % of control | [15] 95 % of control

NC(CSSCC(NC(=O)c1ccccc1)C(=O)O)C(=O)O (centres undefined)
inactive: [13] 103 % of control and 99 % of control | [14] 106 % of control and 96 % of control | [15] 100 % of control and 101 % of control and 111 % of control

Cc1cc(C)n(-c2nnc(-n3nc(C)cc3C)c3ccccc23)n1
inactive: [2] 94 % of control | [3] 87 % of control

CCCCC(=O)CCCCCCCCC(O)CC(=O)OCC (centres undefined)
inactive: [10] 100 % of control | [11] 103 % of control | [12] 102 % of control

CCOC1=NN(c2ccccc2)C(=O)C1
inactive: [8] 100 % of control | [16] 95 % of control | [9] 100 % of control | dose: 200.0 mg/kg/injection, schedule: Q04DX003 (ip), vehicle: saline with Tween-80 95 % of control | dose: 400.0 mg/kg/injection, schedule: Q01DX009 (ip), vehicle: saline with Tween-80 100 % of control | dose: 400.0 mg/kg/injection, schedule: Q04DX003 (ip), vehicle: saline with Tween-80 95 % of control

COc1cc(OC)c(NC(=O)N(NC(=O)NNc2ccccc2)c2ccccc2)cc1Cl
inactive: [13] 100 % of control | [14] 100 % of control | [15] 95 % of control

O=C(O)c1ccc(Oc2nc3ccccc3s2)cc1
inactive: dose: 50.0 mg/kg/injection, schedule: Q04DX003 (ip), vehicle: saline with Tween-80 91 % of control | [16] 91 % of control

O=S(=O)(Cl)C(F)(F)C(F)(F)C(F)(F)C(F)(F)F
inactive: [2] 102 % of control | [3] 103 % of control | [4] 88 % of control

CCn1c(=O)c(C(C)=O)cc2c(=O)c3c(ccc4ccccc43)oc21
inactive: [5] 104 % of control | [6] 93 % of control | [7] 91 % of control

CCCCCCCCCCCCCCCC(=O)O[C@@H]1[C@@H](C)[C@@]2(O)[C@@H](C=C(CO)C[C@]3(O)C(=O)C(C)=C[C@@H]23)[C@H]2[C@]1(OC(C)=O)[C@]2(C)CO
inactive: dose: 0.13 mg/kg/injection, schedule: Q01DX005 (ip), vehicle: distilled water + Tween-80 117 % of control and 120 % of control | dose: 0.25 mg/kg/injection, schedule: Q01DX005 (ip), vehicle: distilled water + Tween-80 111 % of control | dose: 0.5 mg/kg/injection, schedule: Q01DX005 (ip), vehicle: distilled water + Tween-80 106 % of control
